Test results taken from article PMC6614406, “Phylogenetic and crystallographic analysis of Nostoc phycocyanin having blue-shifted spectral properties” (Scientific Reports, 2019).

Columns and labels:
[1] = target: T1, Nostoc sp. R76DM phycocyanin (N-PC) (Nostoc, UniProt A0A5H1ZR40+A0A5H1ZR41); assay: X-ray crystal structure ([…] Å); type: binding; settings: covalent; native chromophore attached to alpha Cys84, beta Cys82 and beta Cys153; 18 PCB per hexamer
T1 construct: native, purified from Nostoc sp; R76DM cells; (alpha3beta3)2 hexamer; subunits near 18 kDa on SDS-PAGE; chromophores covalently attached
T1 sequence (A0A5H1ZR41 entry or part of it): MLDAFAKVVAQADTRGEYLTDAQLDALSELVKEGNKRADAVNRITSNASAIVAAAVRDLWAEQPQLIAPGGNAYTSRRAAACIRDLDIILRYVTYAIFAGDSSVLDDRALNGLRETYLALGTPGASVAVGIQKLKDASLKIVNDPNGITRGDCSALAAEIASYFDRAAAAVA
T1 sequence (A0A5H1ZR40 entry or part of it): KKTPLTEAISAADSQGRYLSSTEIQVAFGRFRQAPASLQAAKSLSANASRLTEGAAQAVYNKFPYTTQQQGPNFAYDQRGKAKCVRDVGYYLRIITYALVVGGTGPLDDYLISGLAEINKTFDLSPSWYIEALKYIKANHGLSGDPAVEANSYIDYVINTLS

[2] = target: Nostoc sp. R76DM phycocyanin αβ heterodimer (αβ monomer) (Nostoc sp. R76DM); assay: crystal structure; N-PC at 10 mg/mL, sitting drop vapor diffusion, 0.2 M sodium malonate, 20% (w/v) PEG 3350, 25 °C; space group P21, 2.35 Å; one (α3β3)2 hexamer in the asymmetric unit

Row | stoichiometry N [2] | Compound | X-ray crystal structure (2.35 Å) [1]
1 |  | C/C=C1/C(=C/c2[nH]c(/C=C3N=C(/C=C4\NC(=O)C(CC)=C4C)C(C)=C\3CCC(=O)O)c(CCC(=O)O)c2C)NC(=O)[C@@H]1C [phycocyanobilin] | The N-PC contains three PCB chromophores; one is attached covalently with Cys84 of α-subunit
2 | 6 | Nostoc sp. R76DM phycocyanin αβ heterodimer (αβ monomer) (complex) | 
